Like-named read-outs stand apart in the source and are kept apart here.
Tests used:
P. falciparum TM4 = experiment: In vitro blood stage antimalarial efficacy, [3H]hypoxanthine uptake, strain TM4; type: cell-based; conditions: Plasmodium falciparum
Experimental: (§1) In Vitro Blood Stage Antimalarial Efficacy Evaluation. New compounds were tested against a panel of strains of P. falciparum.
(§2) Test compounds were initially dissolved in DMSO and diluted 400 fold in RPMI 1640 culture medium supplemented with 25 mM Hepes, 32 mM NaHCO3 and 10% Albumax I (Gibco, NY). These solutions were subsequently serially diluted two-fold with a Beckman Biomek® 1000 Robot (Fullerton, Calif.) over 11 different concentrations. The parasites were exposed to serial dilutions of each compound for 48 hrs and incubated at 37° C. with 5% O2, 5% CO2 and 90% N2 prior to the addition of [^3H]hypoxanthine. After a further incubation of 18 hrs, parasite DNA was harvested from each microtiter well using Packard Filtermate™ 196 Harvester (Meriden, Conn.) onto glass filters. Uptake of [^3H]hypoxanthine was measured with a Packard TopCount Liquid Scintillation Counter (Packard Instrument Co.).

P. falciparum V1S = experiment: microbe, parasite or virus in culture; type: cell-based; conditions: Plasmodium falciparum
Experimental: as §1, §2

P. falciparum TM6 = experiment: In vitro blood stage antimalarial efficacy, [3H]hypoxanthine uptake, strain TM6; type: cell-based; conditions: Plasmodium falciparum
Experimental: as §1, §2

P. falciparum 3D7 = experiment: In vitro blood stage antimalarial efficacy, [3H]hypoxanthine uptake, strain 3D7; type: cell-based; conditions: Plasmodium falciparum
Experimental: as §1, §2

P. falciparum DD2 = experiment: In vitro blood stage antimalarial efficacy, [3H]hypoxanthine uptake, strain DD2; type: cell-based; conditions: Plasmodium falciparum
Experimental: as §1, §2

P. falciparum K1 = experiment: In vitro blood stage antimalarial efficacy, [3H]hypoxanthine uptake, strain K1; type: cell-based; conditions: Plasmodium falciparum
Experimental: as §1, §2

P. falciparum PH3 = experiment: In vitro blood stage antimalarial efficacy, [3H]hypoxanthine uptake, strain PH3; type: cell-based; conditions: Plasmodium falciparum
Experimental: as §1, §2

rodent P. berghei = conditions: for MCureD (minimum curative dose): rodent P. berghei
Experimental: Antimalarial potency was measured by determination of the MCD (minimum clearance dose), a commonly used efficacy measurement. The primary therapeutic indices, which were obtained by using the MCDs as the effective parameters, were calculated. A secondary therapeutic indices measure of antimalarial potency was determined by use of the dose for the MCureD (minimum curative dose).

[1] = tested on: Liver stage of P. yoelii yoelii; experiment: In vitro liver-stage antimalarial efficacy evaluation; type: cell-based; conditions: Plasmodium yoelii
Experimental: In Vitro Liver-Stage Antimalarial Efficacy Evaluation. Any new desirable antimalarial drug should be broad spectrum: it should be active against both the blood stage and the liver stage of the parasite. New compounds were assessed on the Plasmodium yoelii liver stage in vitro. The liver stage of P. yoelii is a parasite of rodent extensively used as an experimental model for studying the initial phase of the malaria infection.

Plasmodium cynomolgi = experiment: Radical curative activity in relapsed Rhesus monkeys; type: in vivo; conditions: CQ alone 10 mg/kg/day for 7 days, no drug 2
Source text: Compounds with antihypnozoite activity will delay the relapse or radically cure the infection. […] Relapse was expected in the control group. Relapse in the treated group indicates failure of the test compounds. […] After standard treatment, blood smears were monitored daily for 4 consecutive days of negative results and 2 times weekly for 2 weeks.

[2] = tested on: P. falciparum African NF54 strain; experiment: In vivo efficacy in immunocompromised BXN mice infected with P. falciparum NF54; conditions: Plasmodium falciparum, 96 h, oral once daily for 4 days
Source text: (§3) Antimalarial efficacy data was obtained by evaluating new compounds in two rodent models: (I) Swiss mice infected with rodent malaria strain P. berghei; (II) Immunocompromised BXN mice infected with either the sensitive P. falciparum African NF54 strain or the multi-drug resistant P. falciparum Thailand T24 strain.

P. berghei NK-65 = experiment: In vivo efficacy in Swiss mice infected with P. berghei; conditions: Plasmodium berghei, 96 h; P. berghei NK-65, Swiss mice, oral once daily for 4 days; read-out: ED50
[3] = tested on: multi-drug resistant P. falciparum Thailand T24 strain; experiment: In vivo efficacy in immunocompromised BXN mice infected with P. falciparum T24; conditions: Plasmodium falciparum, 96 h, oral once daily for 4 days
Source text: as §3

[4] = Sprague-Dawley, rat, in vivo, po

What does the source list for `CCN(CC)Cc1cc(Nc2ccnc3cc(Cl)ccc23)ccc1O` [Amodiaquine, reference compound]?
IC50 (P. falciparum TM4; read-out: IC50): 15.2 ± 2.6 nM; IC50 (P. falciparum V1S): 8.7 ± 2.5 nM; IC50 (P. falciparum TM6; read-out: IC50): 7.5 ± 2.4 nM; IC50 (P. falciparum 3D7; read-out: IC50): 4.9 ± 1.8 nM; IC50 (P. falciparum DD2; read-out: IC50): 9.1 ± 1.2 nM; IC50 (P. falciparum K1; read-out: IC50): 21.2 ± 2.1 nM; IC50 (P. falciparum PH3; read-out: IC50): 15.9 ± 3.2 nM

For `C[C@H]1[C@H](OC(=O)CCC(=O)O)O[C@@H]2O[C@@]3(C)CC[C@H]4[C@H](C)CC[C@@H]1[C@@]24OO3` [Artesunate], which Primary therapeutic index (rodent P. berghei; MTD divided by MCD, route iv) is on record?
Its Primary therapeutic index is 37.

What about the Secondary therapeutic index (rodent P. berghei; MTD divided by MCureD, route iv) of the same compound?
Its Secondary therapeutic index is 10.

What about the “MCureD (minimum curative dose)” value (rodent P. berghei; route iv) of the same compound?
The value was 25.4 mg/kg.

What about the “MTD (maximum tolerated dose)” value (rats, route iv) of the same compound?
Its value is 250 mg/kg.

With `O=C1C(O)=C([C@H]2CC[C@H](c3ccc(Cl)cc3)CC2)C(=O)c2ccccc21` [Atovaquone, reference compound] as the compound, how does the IC50 [1] read?
Its IC50 is 57 nM.

For `CCN(CC)CCCC(C)Nc1ccnc2cc(Cl)ccc12` (stereo not shown) [Chloroquine, reference compound], which IC50 (P. falciparum TM4) is on record?
The IC50 was 115 ± 12.7 nM.

What about the “MCureD (minimum curative dose)” value (rodent P. berghei; administered orally) of the same compound?
Its value is “None”.

And the IC50 (P. falciparum V1S)?
Its IC50 is 152 ± 14.1 nM.

And the IC50 (P. falciparum TM6)?
Its IC50 is 96.4 ± 6.9 nM.

What about the IC50 (P. falciparum 3D7) of the same compound?
The IC50 was 9.7 ± 3.4 nM.

What about the IC50 (P. falciparum DD2) of the same compound?
Its IC50 is 45.8 ± 10.2 nM.

And the “MTD (maximum tolerated dose)” value (rats, administered orally (intragastric), observed 2 weeks)?
Its value is 240 mg/kg.

And the “Results (radical curative test)” value (Plasmodium cynomolgi)?
Its value is “relapse”.

What about the “Days post-treatment (relapse)” value (Plasmodium cynomolgi; one value per monkey) of the same compound?
Its value is 9 days.

What about the IC50 (P. falciparum K1) of the same compound?
Its IC50 is 166 ± 19.3 nM.

And the IC50 (P. falciparum PH3)?
The IC50 was 33.4 ± 9.1 nM.

For `C[C@H]1[C@@H](O)O[C@@H]2O[C@@]3(C)CC[C@H]4[C@H](C)CC[C@@H]1[C@@]24OO3` [Dihydroartemisinin, reference compound], which ED50 [2] is on record?
The ED50 was 1.1 mg/kg.

And the ED50 (P. berghei NK-65)?
The ED50 was 0.56 mg/kg.

And the ED50 [3]?
The ED50 was 1.2 mg/kg.

With `OC(c1cc(C(F)(F)F)nc2c(C(F)(F)F)cccc12)C1CCCCN1` (stereo not shown) [Mefloquine] as the compound, how does the Primary therapeutic index (rodent P. berghei; [4]) read?
The Primary therapeutic index was 60.

And the Secondary therapeutic index (rodent P. berghei; [4])?
Its Secondary therapeutic index is 15.

And the “MCureD (minimum curative dose)” value (rodent P. berghei; administered orally)?
Its value is 40.5 mg/kg.

What about the “MTD (maximum tolerated dose)” value (Sprague-Dawley, rat, in vivo, po, 2 weeks) of the same compound?
Its value is 600 mg/kg.

With `COc1cc(NC(C)CCCN)c2ncccc2c1` (stereo not shown) [Primaquine, reference compound] as the compound, how does the IC50 [1] read?
Its IC50 is 76 nM.

From patent publication US8653095B2, “Small molecules with antimalarial activity” (Radix Pharmaceuticals, Inc., priority 2011, dated 2014)
